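All cell lines were grown in 96-well plates and treated with compound for 48 hours. GI50 marks 50% less growth.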 The source made the active and inactive calls. Cut-off read from the data, not from the text of the source: active = GI50 up to about 1.1 µM and inactive = higher.
Tests used:
Assay in all cases: NCI-60 cell line screen, 48 h
SNB-19 = test system: SNB-19
SN12C = test system: SN12C
IGROV-1 = test system: IGROV-1
SK-MEL-5 = test system: SK-MEL-5
SF-539 = test system: SF-539
HCT-15 = test system: HCT-15
SK-MEL-28 = test system: SK-MEL-28
T47D = test system: T47D
HCC 2998 = test system: HCC 2998
HT-29 = test system: HT-29
TK-10 = test system: TK-10
KM12 = test system: KM12
RXF 393 = test system: RXF 393
NCI-H460 = test system: NCI-H460
ACHN = test system: ACHN
786-0 = test system: 786-0
K562 = test system: K562
LOX IMVI = test system: LOX IMVI
NCI-H226 = test system: NCI-H226
SK-MEL-2 = test system: SK-MEL-2
EKVX = test system: EKVX
MDA-MB-435 = test system: MDA-MB-435
U-251 = test system: U-251
OVCAR-4 = test system: OVCAR-4
NCI-H522 = test system: NCI-H522
Hs-578T = test system: Hs-578T
COLO 205 = test system: COLO 205
SR = test system: SR
Malme-3M = test system: Malme-3M
MDA-N = test system: MDA-N
PC-3 = test system: PC-3
MCF7 = test system: MCF7
RPMI-8226 = test system: RPMI-8226
NCI/ADR-RES = test system: NCI/ADR-RES
SK-OV-3 = test system: SK-OV-3
A549 = test system: A549
SW-620 = test system: SW-620
DU-145 = test system: DU-145
M14 = test system: M14
HOP-62 = test system: HOP-62
HL-60 = test system: HL-60
MOLT-4 = test system: MOLT-4
OVCAR-8 = test system: OVCAR-8
HCT-116 = test system: HCT-116
UACC-257 = test system: UACC-257
SF-295 = test system: SF-295
NCI-H23 = test system: NCI-H23
OVCAR-3 = test system: OVCAR-3
SF-268 = test system: SF-268
UACC-62 = test system: UACC-62
A498 = test system: A498
OVCAR-5 = test system: OVCAR-5
HOP-92 = test system: HOP-92
MDA-MB-231 = test system: MDA-MB-231
UO-31 = test system: UO-31
SNB-75 = test system: SNB-75
BT-549 = test system: BT-549
CCRF-CEM = test system: CCRF-CEM
CAKI-1 = test system: CAKI-1

`CC(=O)OC1C2CCC3CC2C2(SCCS2)C31` (centres undefined) was tested, and the GI50 (SNB-19) was > 100 µM (inactive), the GI50 (SN12C) was > 100 µM (inactive) and the GI50 (IGROV-1) was > 100 µM (inactive). The GI50 (SK-MEL-5) was > 100 µM (inactive), the GI50 (SF-539) was 65.9 µM (inactive) and the GI50 (HCT-15) was > 100 µM. The GI50 (SK-MEL-28) was > 100 µM (inactive), the GI50 (T47D) was > 100 µM (inactive) and the GI50 (HCC 2998) was > 100 µM (inactive). The GI50 (HT-29) was > 100 µM (inactive), the GI50 (TK-10) was > 100 µM (inactive) and the GI50 (KM12) was > 100 µM (inactive). The GI50 (RXF 393) was > 100 µM (inactive), the GI50 (NCI-H460) was > 100 µM (inactive) and the GI50 (ACHN) was > 100 µM (inactive). The GI50 (786-0) was > 100 µM (inactive), the GI50 (K562) was > 100 µM (inactive) and the GI50 (LOX IMVI) was > 100 µM (inactive). The GI50 (NCI-H226) was > 100 µM (inactive), the GI50 (SK-MEL-2) was > 100 µM (inactive) and the GI50 (EKVX) was > 100 µM (inactive). For the same compound, the GI50 (MDA-MB-435) was > 100 µM (inactive), the GI50 (U-251) was > 100 µM (inactive) and the GI50 (OVCAR-4) was > 100 µM (inactive). The GI50 (NCI-H522) was > 100 µM (inactive), the GI50 (Hs-578T) was > 100 µM (inactive) and the GI50 (COLO 205) was > 100 µM (inactive). For the same compound, the GI50 (SR) was > 100 µM (inactive), the GI50 (Malme-3M) was > 100 µM (inactive) and the GI50 (MDA-N) was > 100 µM (inactive). The GI50 (PC-3) was > 100 µM (inactive), the GI50 (MCF7) was > 100 µM (inactive) and the GI50 (RPMI-8226) was > 100 µM (inactive). For the same compound, the GI50 (NCI/ADR-RES) was > 100 µM (inactive), the GI50 (SK-OV-3) was > 100 µM (inactive) and the GI50 (A549) was > 100 µM (inactive). The GI50 (SW-620) was > 100 µM (inactive), the GI50 (DU-145) was > 100 µM (inactive) and the GI50 (M14) was > 100 µM (inactive). For the same compound, the GI50 (HOP-62) was 87.7 µM (inactive), the GI50 (HL-60) was 70.8 µM (inactive) and the GI50 (MOLT-4) was > 100 µM (inactive). For the same compound, the GI50 (OVCAR-8) was > 100 µM (inactive), the GI50 (HCT-116) was > 100 µM (inactive) and the GI50 (UACC-257) was > 100 µM (inactive). For the same compound, the GI50 (SF-295) was > 100 µM (inactive), the GI50 (NCI-H23) was > 100 µM (inactive) and the GI50 (OVCAR-3) was > 100 µM (inactive). For the same compound, the GI50 (SF-268) was > 100 µM (inactive), the GI50 (UACC-62) was > 100 µM (inactive) and the GI50 (A498) was > 100 µM (inactive). The GI50 (OVCAR-5) was > 100 µM (inactive), the GI50 (HOP-92) was > 100 µM (inactive) and the GI50 (MDA-MB-231) was 51.9 µM (inactive). The GI50 (UO-31) was > 100 µM (inactive).

In the case of `COC(=O)C1=CC(=O)OC1(OO)c1ccccc1` (centres undefined), the GI50 (SNB-19) is reported as > 100 µM (inactive), the GI50 (SN12C) is reported as > 100 µM (inactive) and the GI50 (IGROV-1) is reported as > 100 µM (inactive). For the same compound, the GI50 (SK-MEL-5) was > 100 µM (inactive), the GI50 (SF-539) was > 100 µM (inactive) and the GI50 (HCT-15) was 54 µM. The GI50 (SK-MEL-28) was > 100 µM (inactive), the GI50 (SNB-75) was 92.3 µM (inactive) and the GI50 (T47D) was > 100 µM (inactive). For the same compound, the GI50 (HCC 2998) was > 100 µM (inactive), the GI50 (HT-29) was 56.4 µM (inactive) and the GI50 (TK-10) was > 100 µM (inactive). The GI50 (KM12) was > 100 µM (inactive), the GI50 (RXF 393) was > 100 µM (inactive) and the GI50 (NCI-H460) was > 100 µM (inactive). For the same compound, the GI50 (ACHN) was > 100 µM (inactive), the GI50 (786-0) was 35.6 µM (inactive) and the GI50 (K562) was 33.5 µM (inactive). For the same compound, the GI50 (LOX IMVI) was 94.8 µM (inactive), the GI50 (NCI-H226) was > 100 µM (inactive) and the GI50 (SK-MEL-2) was > 100 µM (inactive). For the same compound, the GI50 (EKVX) was > 100 µM (inactive), the GI50 (MDA-MB-435) was > 100 µM (inactive) and the GI50 (U-251) was > 100 µM (inactive). For the same compound, the GI50 (OVCAR-4) was > 100 µM (inactive), the GI50 (NCI-H522) was 30.3 µM (inactive) and the GI50 (BT-549) was > 100 µM (inactive). For the same compound, the GI50 (COLO 205) was > 100 µM (inactive), the GI50 (SR) was 42.1 µM (inactive) and the GI50 (Malme-3M) was 28.3 µM (inactive). For the same compound, the GI50 (CCRF-CEM) was 18.7 µM (inactive), the GI50 (MDA-N) was > 100 µM (inactive) and the GI50 (PC-3) was > 100 µM (inactive). For the same compound, the GI50 (MCF7) was > 100 µM (inactive), the GI50 (NCI/ADR-RES) was > 100 µM (inactive) and the GI50 (SK-OV-3) was > 100 µM (inactive). For the same compound, the GI50 (A549) was > 100 µM (inactive), the GI50 (SW-620) was 68.1 µM (inactive) and the GI50 (DU-145) was > 100 µM (inactive). The GI50 (M14) was > 100 µM (inactive), the GI50 (HL-60) was 3.18 µM (inactive) and the GI50 (MOLT-4) was 62.2 µM (inactive). The GI50 (OVCAR-8) was > 100 µM (inactive), the GI50 (CAKI-1) was 38.8 µM (inactive) and the GI50 (HCT-116) was 88.3 µM (inactive). The GI50 (UACC-257) was > 100 µM (inactive), the GI50 (SF-295) was > 100 µM (inactive) and the GI50 (NCI-H23) was > 100 µM (inactive). For the same compound, the GI50 (OVCAR-3) was > 100 µM (inactive), the GI50 (UACC-62) was > 100 µM (inactive) and the GI50 (OVCAR-5) was > 100 µM (inactive). For the same compound, the GI50 (HOP-92) was 30.8 µM (inactive), the GI50 (MDA-MB-231) was > 100 µM (inactive) and the GI50 (UO-31) was > 100 µM (inactive).

— ChEMBL document CHEMBL1201862, “PubChem BioAssay data set” (2004)
